Like-named read-outs stand apart in the source and are kept apart here.
Legend:
Format in all cases: cell-based
HIV-1NL4-3 Wild Type = experiment: Luminescence reduction assay, MT4 cells infected with HIV-1NL4-3 luciferase reporter virus, wild type; conditions: 2% FCS
In short: (§1)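 Compound dilution series in 1% DMSO, with 2% or 10% FCS, incubated 5 days at 37° C/5% CO2 with MT4 cells previously pellet-infected (2 h) by luciferase reporter NL4-3 virus, wild type or carrying RT resistance mutations. EC50 taken where luminescence from secreted luciferase falls to 50% of untreated infected control.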

HIV-1NL4-3 K103N-Y181C = experiment: Luminescence reduction assay, MT4 cells infected with HIV-1NL4-3 luciferase reporter virus, RT mutant K103N-Y181C
In short: as §1

HIV-1LAI Wild Type = experiment: AlamarBlue viability assay, HIV-1LAI-infected MT4 cells; conditions: 10% FCS
In short: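 MT4 cells infected with HIV-1LAI (MOI 0.01, supernatant infection) cultured 5 days at 37 °C with compounds in RPMI with 2% or 10% FCS, 1% DMSO final. AlamarBlue fluorescence after 3 h; EC50 as 50% protection relative to uninfected cells, CC50 from high-concentration cytotoxicity.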

[1] = Human immunodeficiency virus 1, MT4, MT4 cells
[2] = Human immunodeficiency virus 1, MT4, read-out: EC50 (μM) MT4 Cells HIV-1NL4-3 K103N-Y181C 2% FCS, MT4 cells, HIV-1NL4-3 K103N-Y181C, 2% FCS
[3] = read-out: EC50 (μM) MT4 Cells HIV-1NL4-3 K103N-Y181C 2% FCS, MT4 cells, HIV-1NL4-3 K103N-Y181C, 2% FCS

| SMILES | EC50 (HIV-1NL4-3 Wild Type; [1]) [µM] | EC50 (HIV-1NL4-3 K103N-Y181C; [2]) [µM] | EC50 (HIV-1LAI Wild Type; [1]) [µM] | EC50 (HIV-1NL4-3 Wild Type; MT4 cells) [µM] | EC50 (HIV-1NL4-3 K103N-Y181C; [3]) [µM] | EC50 (HIV-1LAI Wild Type; MT4 cells) [µM] |
| --- | --- | --- | --- | --- | --- | --- |
| O=C1CN(C(=O)c2cc(-c3cncc(Cl)c3)n(-c3ccc(F)c(Cl)c3)n2)CCN1 [Example 101, 4-{[1-(3-Chloro-4-fluorophenyl)-5-(5-chloropyridin-3-yl)-1H-pyrazol-3-yl]carbonyl}piperazin-2-one] | 0.016 | 0.088 | 0.034 | – | – | – |
| O=C1CN(C(=O)c2cc(-c3cc(F)cc(OC(F)F)c3)n(-c3cccnc3)n2)CN1 [Example 66, 1-({5-[3-(Difluoromethoxy)-5-fluorophenyl]-1-(pyridin-3-yl)-1H-pyrazol-3-yl}carbonyl)imidazolidin-4-one] | 0.013 | 0.058 | 0.083 | – | – | – |
| Cc1ccc(-n2nc(C(=O)N3CNC(=O)C3)cc2-c2cc(F)cc(Cl)c2)cn1 [Example 11, 1-{[5-(3-Chloro-5-fluorophenyl)-1-(6-methylpyridin-3-yl)-1H-pyrazol-3-yl]carbonyl}imidazolidin-4-one] | 0.007 | 0.061 | 0.057 | – | – | – |
| O=C(c1cc(-c2cc(F)cc(OCC(F)(F)F)c2)n(-c2cccnc2)n1)N1CCSC1 [Example 72, {5-[3-Fluoro-5-(2,2,2-trifluoroethoxy)phenyl]-1-(pyridin-3-yl)-1H-pyrazol-3-yl}(1,3-thiazolidin-3-yl)methanone] | 0.038 | > 3.3 | 0.585 | – | – | – |
| O=C1CN(C(=O)c2cc(-c3cc(F)cc(Cl)c3)n(-c3ccnc(C(F)(F)F)c3)n2)CN1 [Example 16, 1-({5-(3-Chloro-5-fluorophenyl)-1-[2-(trifluoromethyl)pyridin-4-yl]-1H-pyrazol-3-yl}carbonyl)imidazolidin-4-one] | 0.055 | 0.339 | 0.49 | – | – | – |
| O=C1CN(C(=O)c2cc(-c3cc(F)cc(Cl)c3)n(-c3ccccn3)n2)CN1 [Example 1, 1-{[5-(3-Chloro-5-fluorophenyl)-1-(pyridin-2-yl)-1H-pyrazol-3-yl]carbonyl}imidazolidin-4-one] | 0.345 | > 3.3 | > 3.3 | – | – | – |
| O=C1CN(C(=O)c2cc(-c3cc(Br)cc(OC(F)(F)F)c3)n(-c3ccnc(Cl)c3)n2)CN1 [Example 48, 1-({5-[3-Bromo-5-(trifluoromethoxy)phenyl]-1-(2-chloropyridin-4-yl)-1H-pyrazol-3-yl}carbonyl)imidazolidin-4-one] | 0.01 | 0.007 | 0.111 | – | – | – |
| O=C(c1cc(-c2cc(Br)cc(OC(F)(F)F)c2)n(-c2ccnc(C(F)(F)F)c2)n1)N1CC[S+]([O-])C1 (stereo not drawn) [Example 51, {5-[3-Bromo-5-(trifluoromethoxy)phenyl]-1-[2-(trifluoromethyl)pyridin-4-yl]-1H-pyrazol-3-yl}(1-oxido-1,3-thiazolidin-3-yl)methanone] | 0.249 | 1.05 | 1.93 | – | – | – |
| COc1cc(OC(F)(F)F)cc(-c2cc(C(=O)N3CCNC(=O)C3)nn2-c2ccnc(Cl)c2)c1 [Example 87, 4-({1-(2-Chloropyridin-4-yl)-5-[3-methoxy-5-(trifluoromethoxy)phenyl]-1H-pyrazol-3-yl}carbonyl)piperazin-2-one] | 0.11 | 0.068 | 0.618 | – | – | – |
| O=C(c1cc(-c2cc(Cl)cc(OC(F)(F)F)c2)n(-c2cccnc2)n1)N1CCS(=O)(=O)C1 [Example 79, {5-[3-Chloro-5-(trifluoromethoxy)phenyl]-1-(pyridin-3-yl)-1H-pyrazol-3-yl}(1,1-dioxido-1,3-thiazolidin-3-yl)methanone] | 0.038 | 0.125 | 0.244 | – | – | – |
| O=C(c1cc(-c2cc(Br)cc(OC(F)(F)F)c2)n(-c2cccnc2)n1)N1CC[S+]([O-])C1 (racemic) [Example 31-1, {5-[3-Bromo-5-(trifluoromethoxy)phenyl]-1-(pyridin-3-yl)-1H-pyrazol-3-yl}(1-oxido-1,3-thiazolidin-3-yl)methanone] | – | – | – | 0.084 | 0.981 | 0.82 |
| O=C(c1cc(-c2cc(F)cc(OC(F)(F)F)c2)n(-c2cccnc2)n1)N1CCSC1 [Example 59, {5-[3-Fluoro-5-(trifluoromethoxy)phenyl]-1-(pyridin-3-yl)-1H-pyrazol-3-yl}(1,3-thiazolidin-3-yl)methanone] | 0.256 | 1.11 | 2.78 | – | – | – |
| O=C1CN(C(=O)c2cc(-c3cc(Br)cc(OC(F)(F)F)c3)n(-c3cncc(F)c3)n2)CCN1 [Example 45, 4-({5-[3-Bromo-5-(trifluoromethoxy)phenyl]-1-(5-fluoropyridin-3-yl)-1H-pyrazol-3-yl}carbonyl)piperazin-2-one] | 0.095 | 0.232 | 0.55 | – | – | – |
| O=C1CN(C(=O)c2cc(-c3cc(F)cc(OCC(F)(F)F)c3)n(-c3cccnc3)n2)CN1 [Example 70, 1-({5-[3-Fluoro-5-(2,2,2-trifluoroethoxy)phenyl]-1-(pyridin-3-yl)-1H-pyrazol-3-yl}carbonyl)imidazolidin-4-one] | < 0.002 | 0.315 | 0.034 | – | – | – |
| COc1cc(OC(F)(F)F)cc(-c2cc(C(=O)N3CNC(=O)C3)nn2-c2cccnc2)c1 [Example 84, 1-({5-[3-Methoxy-5-(trifluoromethoxy)phenyl]-1-(pyridin-3-yl)-1H-pyrazol-3-yl}carbonyl)imidazolidin-4-one] | 0.01 | 0.008 | 0.048 | – | – | – |
| O=C1CN(C(=O)c2cc(-c3ccnc(Cl)c3)n(-c3cccc(Cl)c3)n2)CCN1 [Example 115, 4-{[1-(3-Chlorophenyl)-5-(2-chloropyridin-4-yl)-1H-pyrazol-3-yl]carbonyl}piperazin-2-one] | 0.027 | 1.09 | 0.352 | – | – | – |
| O=C1CN(C(=O)c2cc(-c3cc(F)cc(Br)c3)n(-c3ccnc(Cl)c3)n2)CCN1 [Example 93, 4-{[5-(3-Bromo-5-fluorophenyl)-1-(2-chloropyridin-4-yl)-1H-pyrazol-3-yl]carbonyl}piperazin-2-one] | 0.016 | 0.256 | 0.137 | – | – | – |
| COc1cc(Br)cc(-c2cc(C(=O)N3CCNC(=O)C3)nn2-c2cccnc2)c1 [Example 95] | 0.005 | 0.054 | 0.033 | – | – | – |
| O=C1CN(C(=O)c2cc(-c3cc(F)cc(OC(F)(F)F)c3)n(-c3cccnc3)n2)CN1 [Example 57, 1-({5-[3-Fluoro-5-(trifluoromethoxy)phenyl]-1-(pyridin-3-yl)-1H-pyrazol-3-yl}carbonyl)imidazolidin-4-one] | 0.016 | 0.05 | 0.183 | – | – | – |
| COc1cc(Br)cc(-c2cc(C(=O)N3CCNC(=O)C3)nn2-c2ccnc(Cl)c2)c1 [Example 97, 4-{[5-(3-Bromo-5-methoxyphenyl)-1-(2-chloropyridin-4-yl)-1H-pyrazol-3-yl]carbonyl}piperazin-2-one] | 0.013 | 0.116 | 0.068 | – | – | – |
| Cc1cc(-n2nc(C(=O)N3CCNC(=O)C3)cc2-c2cc(Br)cc(OC(F)(F)F)c2)ccn1 [Example 54, 4-({5-[3-Bromo-5-(trifluoromethoxy)phenyl]-1-(2-methylpyridin-4-yl)-1H-pyrazol-3-yl}carbonyl)piperazin-2-one] | 0.323 | 0.387 | 1.68 | – | – | – |
| O=C(c1cc(-c2cc(Cl)cc(OC(F)(F)F)c2)n(-c2cccnc2)n1)N1CCSC1 [Example 77, {5-[3-Chloro-5-(trifluoromethoxy)phenyl]-1-(pyridin-3-yl)-1H-pyrazol-3-yl}(1,3-thiazolidin-3-yl)methanone] | 0.067 | 0.364 | 0.861 | – | – | – |
| O=C1CN(C(=O)c2cc(-c3cc(F)cc(Cl)c3)n(-c3ccc(Cl)nc3)n2)CCN1 [Example 8, 4-{[5-(3-Chloro-5-fluorophenyl)-1-(6-chloropyridin-3-yl)-1H-pyrazol-3-yl]carbonyl}piperazin-2-one] | 0.06 | 0.29 | 0.205 | – | – | – |
| O=C(c1cc(-c2cc(F)cc(Cl)c2)n(-c2cccnc2)n1)N1CC[S+]([O-])C1 (racemic) [Example 6-2, [5-(3-Chloro-5-fluorophenyl)-1-(pyridin-3-yl)-1H-pyrazol-3-yl](1-oxido-1,3-thiazolidin-3-yl)methanone] | – | – | – | 0.007 | 0.986 | 0.112 |
